Assay results as given in patent publication US20250353853A1, “FLAVIVIRUS INHIBITORS” (IRBM S.P.A., priority 2022, published 2025).
Structures can show the parent of a compound that is named as a salt.

Test system: ZIKV replicon in Vero cells
Assay: ZIKV Replication Inhibition Assay (replicon, NanoLuc)
Details: Zika virus, Vero, 72 h, read-out: Zika Replicon EC50

C=C(Cc1ccccc1)[n+]1cc([N-]C(=O)Nc2cccc(C(F)(F)F)c2)on1 [Example 36, (3-(3-phenylprop-1-en-2-yl)-1,2,3-oxadiazol-3-ium-5-yl)((3-(trifluoromethyl)phenyl)carbamoyl)amide]
EC50: > 20000 nM

Cc1nn(C)c(C)c1-c1ccc(C[n+]2cc([N-]C(=O)Nc3cccc(C(F)(F)F)c3)on2)cc1 [Example 97]
EC50: < 100 nM

O=C([N-]c1on[n+](Cc2ccccc2)c1Cl)Nc1cccc(C(F)(F)F)c1 [Example 24, (3-Benzyl-4-chloro-1,2,3-oxadiazol-3-ium-5-yl)((3-(trifluoromethyl)phenyl)carbamoyl)amide]
EC50: > 20000 nM

CC(Cc1ccccc1)[n+]1cc([N-]C(=O)Nc2ccc(C(F)(F)F)cc2)on1 (stereo not drawn) [Example 2, (3-(1-phenylpropan-2-yl)-1,2,3-oxadiazol-3-ium-5-yl)((4-(trifluoromethyl)phenyl)carbamoyl)amide]
EC50: > 20000 nM

COc1ncc(-c2ccc(C[n+]3cc([N-]C(=O)Nc4cccc(C(F)(F)F)c4)on3)cc2)c(C)n1 [Example 90, (3-(4-(2-Methoxy-4-methylpyrimidin-5-yl)benzyl)-1,2,3-oxadiazol-3-ium-5-yl)((3-(trifluoromethyl)phenyl)carbamoyl)amide]
EC50: < 100 nM

CC(Cc1ccccc1)[n+]1cc([N-]C(=O)Nc2ncc(C(F)(F)F)s2)on1 (stereo not drawn) [Example 4, (3-(1-phenylpropan-2-yl)-1,2,3-oxadiazol-3-ium-5-yl)((5-(trifluoromethyl)thiazol-2-yl)carbamoyl)amide]
EC50: 1000 to 20000 nM

Cc1noc(C)c1-c1cccc(C[n+]2cc([N-]C(=O)Nc3cccc(C(F)(F)F)c3)on2)c1 [Example 94, (3-(3-(3,5-dimethylisoxazol-4-yl)benzyl)-1,2,3-oxadiazol-3-ium-5-yl)((3-(trifluoromethyl)phenyl)carbamoyl)amide]
EC50: 100 to 1000 nM

O=C([N-]c1c[n+](C2Cc3ccccc3C2)no1)Nc1cccc(C(F)(F)F)c1 [Example 10, (3-(2,3-dihydro-1H-inden-2-yl)-1,2,3-oxadiazol-3-ium-5-yl)((3-(trifluoromethyl)phenyl)carbamoyl)amide]
EC50: 1000 to 20000 nM

Cc1noc(C)c1-c1ccc([C@H](CN)[n+]2cc([N-]C(=O)Nc3cccc(C(F)(F)F)c3)on2)cc1 [Example 99, (R)-(3-(2-amino-1-(4-(3,5-dimethylisoxazol-4-yl)phenyl)ethyl)-1,2,3-oxadiazol-3-ium-5-yl)((3-(trifluoromethyl)phenyl)carbamoyl)amide formate]
EC50: < 100 nM

O=C([N-]c1c[n+]([C@H](CF)Cc2ccccc2)no1)Nc1cccc(C(F)(F)F)c1 [Example 37, (S)-(3-(1-fluoro-3-phenylpropan-2-yl)-1,2,3-oxadiazol-3-ium-5-yl)((3-(trifluoromethyl)phenyl)carbamoyl)amide]
EC50: > 20000 nM

O=C([N-]c1c[n+](Cc2ccc(-c3c(F)nc[nH]c3=O)cc2)no1)Nc1cccc(C(F)(F)F)c1 [Example 107, (3-(4-(4-fluoro-6-oxo-1,6-dihydropyrimidin-5-yl)benzyl)-1,2,3-oxadiazol-3-ium-5-yl)((3-(trifluoromethyl)phenyl)carbamoyl)amide]
EC50: 1000 to 20000 nM

Cc1ncc(-c2ccc(C[n+]3cc([N-]C(=O)Nc4cccc(C(F)(F)F)c4)on3)cc2)n1C [Example 105, (3-(4-(1,2-dimethyl-1H-imidazol-5-yl)benzyl)-1,2,3-oxadiazol-3-ium-5-yl)((3-(trifluoromethyl)phenyl)carbamoyl)amide]
EC50: 100 to 1000 nM

NC[C@@H](Cc1ccc(-c2ccccc2)cc1)[n+]1cc([N-]C(=O)Nc2cccc(C(F)(F)F)c2)on1 [Example 66, (R)-(3-(1-([1,1′-biphenyl]-4-yl)-3-aminopropan-2-yl)-1,2,3-oxadiazol-3-ium-5-yl)((3-(trifluoromethyl)phenyl)carbamoyl)amide]
EC50: 1000 to 20000 nM

Cc1nc(OCCO)ncc1-c1ccc(C[n+]2cc([N-]C(=O)Nc3cccc(C(F)(F)F)c3)on2)cc1 [Example 89, (3-(4-(2-(2-hydroxyethoxy)-4-methylpyrimidin-5-yl)benzyl)-1,2,3-oxadiazol-3-ium-5-yl)((3-(trifluoromethyl)phenyl)carbamoyl)amide]
EC50: 100 to 1000 nM

Cc1noc(C)c1-c1ncc(C[n+]2cc([N-]C(=O)Nc3cccc(C(F)(F)F)c3)on2)cn1 [Example 174, (3-((2-(3,5-dimethylisoxazol-4-yl)pyrimidin-5-yl)methyl)-1,2,3-oxadiazol-3-ium-5-yl)((3-(trifluoromethyl)phenyl)carbamoyl)amide]
EC50: 100 to 1000 nM

O=C([N-]c1c[n+](Cc2cccc(-c3ccccc3)c2)no1)Nc1cccc(C(F)(F)F)c1 [Example 27, (3-([1,1′-biphenyl]-3-ylmethyl)-1,2,3-oxadiazol-3-ium-5-yl)((3-(trifluoromethyl)phenyl)carbamoyl)amide]
EC50: 1000 to 20000 nM

C[C@@H](Cc1ccccc1)[n+]1cc([N-]C(=O)Nc2cccc(C(F)(F)F)c2)on1 [Example 14, (S)-(3-(1-phenylpropan-2-yl)-1,2,3-oxadiazol-3-ium-5-yl)((3-(trifluoromethyl)phenyl)carbamoyl)amide]
EC50: > 20000 nM

Cc1ncncc1-c1csc(C[n+]2cc([N-]C(=O)Nc3cccc(C(F)(F)F)c3)on2)c1 [Example 110, (3-((4-(4-methylpyrimidin-5-yl)thiophen-2-yl)methyl)-1,2,3-oxadiazol-3-ium-5-yl)((3-(trifluoromethyl)phenyl)carbamoyl)amide]
EC50: 100 to 1000 nM

O=C([N-]c1c[n+](Cc2ccc(-c3cncnc3)cn2)no1)Nc1cccc(C(F)(F)F)c1 [Example 108, (3-((5-(pyrimidin-5-yl)pyridin-2-yl)methyl)-1,2,3-oxadiazol-3-ium-5-yl)((3-(trifluoromethyl)phenyl)carbamoyl)amide]
EC50: 100 to 1000 nM

O=C([N-]c1c[n+]([C@H](CO)c2ccccc2)no1)Nc1cccc(C(F)(F)F)c1 [Example 31, (S)-(3-(2-hydroxy-1-phenylethyl)-1,2,3-oxadiazol-3-ium-5-yl)((3-(trifluoromethyl)phenyl)carbamoyl)amide]
EC50: > 20000 nM

O=C([N-]c1c[n+]([C@H](CO)Cc2ccccc2)no1)Nc1cccc(C(F)(F)F)c1 [Example 32, (S)-(3-(1-hydroxy-3-phenylpropan-2-yl)-1,2,3-oxadiazol-3-ium-5-yl)((3-(trifluoromethyl)phenyl)carbamoyl)amide]
EC50: 1000 to 20000 nM

Cc1cc(C[n+]2cc([N-]C(=O)Nc3cccc(C(F)(F)F)c3)on2)ccc1-c1cncnc1 [Example 87, (3-(3-methyl-4-(pyrimidin-5-yl)benzyl)-1,2,3-oxadiazol-3-ium-5-yl)((3-(trifluoromethyl)phenyl)carbamoyl)amide]
EC50: 100 to 1000 nM

COc1cc(NC(=O)[N-]c2c[n+](C(C)Cc3ccccc3)no2)cc(C(F)(F)F)c1 (stereo not drawn) [Example 34, ((3-methoxy-5-(trifluoromethyl)phenyl)carbamoyl)(3-(1-phenylpropan-2-yl)-1,2,3-oxadiazol-3-ium-5-yl)amide]
EC50: > 20000 nM

Cc1ncncc1-c1ccc([C@@H](C)[n+]2cc([N-]C(=O)Nc3cccc(C(F)(F)F)c3)on2)cc1 [Example 82, (R)-(3-(1-(4-(4-methylpyrimidin-5-yl)phenyl)ethyl)-1,2,3-oxadiazol-3-ium-5-yl)((3-(trifluoromethyl)phenyl)carbamoyl)amide]
EC50: 100 to 1000 nM
